# Read-outs that look alike come from different tables or passages of the source.
# Assays:
# [1] = system: CYP1A1 in human HepG2 cells; assay: EROD assay (7-ethoxy-resorufin-O-deethylase), human HepG2 cells; type: cell-based; set-up: key to activity group based on EC50 values, in the order of increasing activity: (1) active; (2) more active; (3) most active; details: for activity in the human EROD assay compared to ARI-001 / ARI-002, in words / EC50: human HepG2 cells; for activity group based on EC50 values, in the order of increasing activity: human EROD assay, oxadiazole derivatives of ITE; for EC50: EROD assay, 20 hours treatment
# Protocol: CYP1A1 induction is under the control of the AhR signaling pathway. This Example describes an in vitro assay (7-ethoxy-resorufin-O-deethylase (EROD) assay) that evaluated the AhR modulating activities of the indole compounds described herein. In this assay, the indole compounds were incubated with human HepG2 cells or mouse Hepal-6 cells. The activity of CYP1A1 in the cells was measured by the conversion of substrate 7-ethoxyresorufin, with the readout being a fluorescence signal associated with the conversion product. The EC50 values of the indole compounds as well as the maximum […] induced by them in the assay were determined.
# Human HepG2 cells were obtained from Sigma Aldrich (Catalog 85011430-1VL). Mouse Hepal-6 cells also were obtained from Sigma Aldrich (Catalog 92110305-1V).
# Human HepG2 and Mouse Hepal-6 cells were grown to 60-80% confluency in tissue culture flasks, lifted with non-enzymatic cell dissociation solution (cell stripper), seeded in a 384-well plate at 5,000 cells per well, treated with the test compounds, and incubated for 20 hours overnight at 37° C. The treatment medium was removed and a solution of substrate 7-ethoxyresorufin (ETX) was added to initiate the reaction. The plate was incubated at 37° C. for 30 minutes. The reaction was subsequently terminated by adding tempered methanol. Fluorescent emission was measured at 590 nm with excitation at 530 nm in a FLEXSTATION III instrument (Molecular Devices).
# [2] = In vivo pharmacokinetic study in Sprague-Dawley rats; details: rat; for bioavailability: Sprague-Dawley, plasma, po, 10 mg/kg, PO (10 mg/kg) vs IV (2 mg/kg), read-out: F % (bioavailability); for % of Hepatisc Blood Flow: IV (2 mg/kg)
# Protocol: This example describes pharmacokinetic (PK) studies of the various indole compounds described herein in rats, a rodent species widely used for pre-clinical toxicology evaluation. In the present studies, the test compounds were given to groups of Sprague-Dawley rats (N=3 in each group) intravenously (IV) at 2 mg/kg or orally (PO) at 10 mg/kg. IV doses were formulated in DMSO, while PO doses were formulated in a 50/50 mixture of PEG400 and Tween 80. Blood samples were collected at pre-dose and over a period of 24 hours post-dose. Plasma concentrations of the indole compounds were determined by HPLC.
# [3] = system: EMT-6 syngeneic mouse tumor model (breast cancer); assay: Anti-tumor activity, EMT-6 syngeneic mouse tumor model; type: in vivo; details: for anti-tumor potency, in words: EMT-6 model, 40 mpk
# Protocol: This example describes in vivo studies that evaluated the anti-cancer efficacy of the disclosed indole compounds in syngeneic mouse tumor models. Mice implanted subcutaneously with four types of cancer cells were treated with test indole compounds or vehicle controls as described below.
# A monolayer culture of tumor cells was maintained in vitro in DMEM or RPMI1640 medium supplemented with 10% fetal bovine serum at 37° C. in an atmosphere of 5% CO2. Cells in exponential growth phase were harvested and quantitated by cell counter before tumor inoculation. The cell lines used are described in the table below.
# Four subcutaneous syngeneic mouse tumor models were generated by innoculating female BALB/C or C57BL/6 mice with cancer cells at their right lower or front flank as detailed in the table below:
# Each mouse was inoculated subcutaneously with tumor cells in 0.1 mL of PBS. Treatments were started when the mean tumor size reached approximately 80-120 mm^3 (around 100 mm^3). The administration of the indole compounds and the animal number in each study group are shown in the study design. The date of tumor cell inoculation was denoted as day 0.
# The indole compounds were dissolved in DMSO at the final concentration of 26.7 mg/ml and stored at room temperature.
# Randomization of animals was started when the mean tumor size reached approximately 90 mm^3 to form the mouse study groups. The randomization was performed based on “Matched distribution” method using the multi-task method (StudyDirector™ software, version 3.1.399.19)/randomized block design. The mouse groups (ten in each group) were treated with vehicle (DMSO) or the indole compounds at a dose of 40 mg/kg by i.p. injection, QD for 28 days or longer.
# After tumor cell inoculation, the mice were checked daily for morbidity and mortality. During routine monitoring, the mice were checked for tumor growth and any effects of the treatment on behavior such as mobility, food and water consumption, body weight gain/loss (body weights were measured twice per week after randomization), eye/hair matting, and any other abnormalities. Mortality and observed clinical signs were recorded for individual mice in detail.
# Tumor volumes were measured twice per week in two dimensions using a caliper, and the volume was expressed in mm^3 using the formula: V=(L×W×W)/2, where V is tumor volume, L is tumor length (the longest tumor dimension) and W is tumor width (the longest tumor dimension perpendicular to L). Dosing as well as tumor and body weight measurements was conducted in a Laminar Flow Cabinet. The body weights and tumor volumes were measured by using StudyDirector™ software (version 3.1.399.19). Dosing Holiday
# Tumor growth inhibition percentage (TGI %) is an indicator for antitumor activity of a drug compound, and expressed as: TGI (%)=100×(1−T/C), where T and C are the mean tumor volume (or weight) of the treated and control groups, respectively, on a given day. Statistical analysis of the difference in mean tumor volume (MTV) among the groups was conducted using the data collected on the day when the MTV of the vehicle group reached the humane endpoints, so that TGI could be derived for all or most mice enrolled in the study.
# In Studies 1 and 3, the anti-tumor activity of ARI-001 in parallel with ARI-002 at 160 mg/kg (mpk), and the anti-tumor activity of ARI-087 in parallel with ARI-002 at 40 mpk were assessed using the EMT-6, Pan02, A20, and LL/2 models. Because EMT-6 provides a fast-growing model that enables relatively quick differentiation of performance between compounds, this syngeneic mouse tumor model was chosen for the other studies. In Study 2, the anti-tumor activity of ARI-002 was compared with that of ARI-004 at 10, 40, and 80 mpk. In Study 4, the anti-tumor activity of ARI-087 was compared with that of ARI-140. In Study 5, the anti-tumor activity of ARI-087 was evaluated in parallel with ARI-143 and ARI-149 at 40 mpk. […]
# [4] = Mus musculus, EMT6, ip, 624 h, Study 6, EMT-6, 40 mpk i.p. QD, D26, read-out: TGI (tumor growth inhibition)
# [5] = Mus musculus, EMT6, ip, 720 h, Study 5, EMT-6, 40 mpk i.p. QD, D30, read-out: TGI (tumor growth inhibition)
compound,measurement,setting,value
CNC(=O)c1csc(C(=O)c2c[nH]c3ccccc23)n1 [ARI-004],"activity in the human EROD assay compared to ARI-001 / ARI-002, in words",[1],less active
same,bioavailability,[2],33.6%
same,% of Hepatisc Blood Flow,[2],189%
same,inhibition in vivo at 10 mg/kg,"[3]; Mus musculus, EMT6, 648 h, Study 2, EMT-6, 10 mpk, D27, read-out: TGI (tumor growth inhibition)",-38.2%
same,inhibition in vivo at 40 mg/kg,"[3]; Mus musculus, EMT6, 648 h, Study 2, EMT-6, 40 mpk, D27, read-out: TGI (tumor growth inhibition)",0.3%
same,inhibition in vivo at 80 mg/kg,"[3]; Mus musculus, EMT6, 648 h, Study 2, EMT-6, 80 mpk, D27, read-out: TGI (tumor growth inhibition)",15.8%
"CNC(=O)c1csc(C(=O)c2c[nH]c3ccc(Cl)cc23)n1 [ARI-049, 2-(5-chloro-1H-indole-3-carbonyl)-N-methylthiazole-4-carboxamide]","activity in the human EROD assay compared to ARI-001 / ARI-002, in words",[1],less active
"COC(=O)c1csc(C(=O)c2c[nH]c3ccc(Cl)cc23)n1 [ARI-055, methyl 2-(5-chloro-1H-indole-3-carbonyl)thiazole-4-carboxylate]","activity in the human EROD assay compared to ARI-001 / ARI-002, in words",[1],less active
"O=C(c1nc(-c2nnco2)cs1)c1c[nH]c2ccccc12 [ARI-056, (4-(1,3,4-oxadiazol-2-yl)thiazol-2-yl)(1H-indol-3-yl)methanone]","activity group based on EC50 values, in the order of increasing activity",[1],active
same,"activity in the human EROD assay compared to ARI-001 / ARI-002, in words",[1],significantly more (about 4 to 900 times more) active than ARI-001
same,"anti-tumor potency, in words",[3],less anti-tumor potency than ARI-087
same,inhibition in vivo at 40 mg/kg,[3]; [4],34.3%
"Cc1nnc(-c2csc(C(=O)c3c[nH]c4ccccc34)n2)o1 [ARI-060, (1H-indol-3-yl)(4-(5-methyl-1,3,4-oxadiazol-2-yl)thiazol-2-yl)methanone]","activity group based on EC50 values, in the order of increasing activity",[1],active
same,"activity in the human EROD assay compared to ARI-001 / ARI-002, in words",[1],significantly more (about 4 to 900 times more) active than ARI-001
"CNC(=O)c1csc(C(=O)c2c[nH]c3ccc(F)cc23)n1 [ARI-065, 2-(5-fluoro-1H-indole-3-carbonyl)-N-methylthiazole-4-carboxamide]","activity in the human EROD assay compared to ARI-001 / ARI-002, in words",[1],less active
"COC(=O)c1csc(C(=O)c2c[nH]c3ccc(F)cc23)n1 [ARI-066, methyl 2-(5-fluoro-1H-indole-3-carbonyl)thiazole-4-carboxylate]","activity in the human EROD assay compared to ARI-001 / ARI-002, in words",[1],less active
"CCC(=O)c1csc(C(=O)c2c[nH]c3ccc(Cl)cc23)n1 [ARI-067, 1-(2-(5-chloro-1H-indole-3-carbonyl)thiazol-4-yl)propan-1-one]","activity in the human EROD assay compared to ARI-001 / ARI-002, in words",[1],less active
same,bioavailability,[2],3.5%
same,% of Hepatisc Blood Flow,[2],350%
"Nc1nnc(-c2csc(C(=O)c3c[nH]c4ccccc34)n2)s1 [ARI-090, (4-(5-amino-1,3,4-thiadiazol-2-yl)thiazol-2-yl)(1H-indol-3-yl)methanone]","activity group based on EC50 values, in the order of increasing activity",[1],more active
same,"activity in the human EROD assay compared to ARI-001 / ARI-002, in words",[1],significantly more (about 4 to 900 times more) active than ARI-001
same,"anti-tumor potency, in words",[3],less anti-tumor potency than ARI-087
same,inhibition in vivo at 40 mg/kg,[3]; [4],30.1%
"Nc1nnc(-c2csc(C(=O)c3c[nH]c4cc(Cl)c(Cl)cc34)n2)o1 [ARI-120, (4-(5-amino-1,3,4-oxadiazol-2-yl)thiazol-2-yl)(5,6-dichloro-1H-indol-3-yl)methanone]","activity group based on EC50 values, in the order of increasing activity",[1],most active
same,"activity in the human EROD assay compared to ARI-001 / ARI-002, in words",[1],significantly more (about 4 to 900 times more) active than ARI-001
same,"anti-tumor potency, in words",[3],less anti-tumor potency than ARI-087
same,inhibition in vivo at 40 mg/kg,[3]; [5],27.2%
"CCC(=O)c1csc(C(=O)c2c[nH]c3c(F)cccc23)n1 [ARI-140, 1-(2-(7-fluoro-1H-indole-3-carbonyl)thiazol-4-yl)propan-1-one]",EC50,[1],0.7 nM
same,inhibition in vivo at 40 mg/kg,"[3]; Mus musculus, EMT6, ip, 672 h, Study 4, EMT-6, 40 mpk i.p. QD, D28, read-out: TGI (tumor growth inhibition)",30.6%
"CCC(=O)c1csc(C(=O)c2c[nH]c3cccc(F)c23)n1 [ARI-142, 1-(2-(4-fluoro-1H-indole-3-carbonyl)thiazol-4-yl)propan-1-one]",EC50,[1],64.8 nM
same,"activity in the human EROD assay compared to ARI-001 / ARI-002, in words",[1],less active than ARI-002
"NCc1nnc(-c2csc(C(=O)c3c[nH]c4c(F)cccc34)n2)o1 [ARI-145, (4-(5-(aminomethyl)-1,3,4-oxadiazol-2-yl)thiazol-2-yl)(7-fluoro-1H-indol-3-yl)methanone]","activity group based on EC50 values, in the order of increasing activity",[1],more active
same,"activity in the human EROD assay compared to ARI-001 / ARI-002, in words",[1],significantly more (about 4 to 900 times more) active than ARI-001
same,"anti-tumor potency, in words",[3],less anti-tumor potency than ARI-087
same,inhibition in vivo at 40 mg/kg,[3]; [5],10.5%
"NCc1nc(-c2csc(C(=O)c3c[nH]c4c(F)cccc34)n2)no1 [ARI-146, (4-(5-(aminomethyl)-1,2,4-oxadiazol-3-yl)thiazol-2-yl)(7-fluoro-1H-indol-3-yl)methanone]","anti-tumor potency, in words",[3],less anti-tumor potency than ARI-087
same,inhibition in vivo at 40 mg/kg,[3]; [5],23.2%
"Nc1nnc(-c2csc(C(=O)c3c[nH]c4ccc(F)cc34)n2)o1 [ARI-148, (4-(5-amino-1,3,4-oxadiazol-2-yl)thiazol-2-yl)(5-fluoro-1H-indol-3-yl)methanone]","activity group based on EC50 values, in the order of increasing activity",[1],more active
same,"activity in the human EROD assay compared to ARI-001 / ARI-002, in words",[1],significantly more (about 4 to 900 times more) active than ARI-001
same,"anti-tumor potency, in words",[3],less anti-tumor potency than ARI-087
same,inhibition in vivo at 40 mg/kg,[3]; [5],4.8%

# — patent US11891386B2, “Indole compounds and their use” (ARIAGEN, INC., priority 2017, dated 2024)
